Each block holds one compound with its values, some of them ahead of it.
How the values were obtained:
[1] = tested on: Tetranychus urticae; test: Tetranychus urticae spray test, OP-resistant (TETRUR); format: in vivo; settings: application rate of 500 g/ha, after 6 days; for pest or weed control at 500 g/ha: Tetranychus urticae, 144 h, read-out: efficacy
How it was run: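 Bean leaf discs infested with all stages of an OP-resistant Tetranychus urticae strain sprayed with compound in acetone/DMF with alkylaryl polyglycol ether emulsifier, diluted in water. Efficacy in % scored after 6 days; 100% means all mites killed.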

[2] = log P by HPLC (OECD Guideline 117), method [a] acidic range; format: physicochemical; settings: for logP[a]: HPLC, method [a] acidic range; for chromatographic logP: reversed-phase C18 HPLC column, acidic range
Experimental: (§1) The log P values were determined analogously to OECD Guideline 117 (EC Directive 92/69/EEC) by HPLC (high-performance liquid chromatography) using reversed-phase columns (C 18), by the following methods:
[a] The LC-MS determination in the acidic range is effected at pH 2.7 with 0.1% aqueous formic acid and acetonitrile (contains 0.1% formic acid) as eluents; linear gradient from 10% acetonitrile to 95% acetonitrile.

[3] = log P by HPLC (OECD Guideline 117), method [b] neutral range; format: physicochemical; settings: HPLC; for logP[b]: method [b] neutral range; for chromatographic logP: reversed-phase C18 HPLC column, neutral range, pH 7.8
Experimental: as §1
[b] The LC-MS determination in the neutral range is effected at pH 7.8 with 0.001 molar aqueous ammonium hydrogencarbonate solution and acetonitrile as eluents; linear gradient from 10% acetonitrile to 95% acetonitrile.

[4] = pH 2.7, HPLC method [a], read-out: logP[a]
[5] = pH 2.7, HPLC, pH 2.7, read-out: log P[a]

SMILES: Cc1ccc(-n2nc(-n3nc(Oc4ccccc4)n(C)c3=O)n(C)c2=O)cc1SCC(F)(F)F [Example 192]
- efficacy [1]: 90%
- logP[a] [2]: 3.76
- logP[b] [3]: 3.68

SMILES: Cc1cc(F)c(-n2nc(N(C)C)n(C3CC3)c2=O)cc1SCC(F)(F)F [Example 193]
- efficacy [1]: 100%
- logP[a] [2]: 3.20
- logP[b] [3]: 3.15

SMILES: Cc1cc(F)c(-n2nc(C3CC3)n(N(C)C)c2=O)cc1SCC(F)(F)F [Example 195, 5-Cyclopropyl-4-(dimethylamino)-2-{2-fluoro-4-methyl-5-[(2,2,2-trifluoroethyl)sulphanyl]phenyl}-2,4-dihydro-3H-1,2,4-triazol-3-one]
- pest or weed control at 500 g/ha [1]: 100%
- chromatographic logP [2, 4]: 3.75
- chromatographic logP [2, 5]: 3.75
- chromatographic logP [3]: 3.73

SMILES: Cc1cc(F)c(-n2nc(C3CC3)n(N(C)C)c2=O)cc1[S+]([O-])CC(F)(F)F (centres unmarked) [Example 197, 5-Cyclopropyl-4-(dimethylamino)-2-{2-fluoro-4-methyl-5-[(2,2,2-trifluoroethyl)sulphinyl]phenyl}-2,4-dihydro-3H-1,2,4-triazol-3-one]
- pest or weed control at 500 g/ha [1]: 100%
- chromatographic logP [2, 4]: 2.6
- chromatographic logP [2, 5]: 2.6
- chromatographic logP [3]: 2.59

SMILES: Cc1cc(F)c(-n2nc(C(C)C)n(N)c2=O)cc1[S+]([O-])CC(F)(F)F (centres unmarked) [Example 204]
- efficacy [1]: 100%
- logP[a] [2]: 1.96
- logP[b] [3]: 1.95

SMILES: Cc1cc(F)c(-n2nc(C3CC3)n(N)c2=O)cc1[S+]([O-])CC(F)(F)F (centres unmarked) [Example 206]
- efficacy [1]: 100%
- logP[a] [2]: 1.75
- logP[b] [3]: 1.72

SMILES: COCc1nn(-c2cc([S+]([O-])CC(F)(F)F)c(C)cc2F)c(=O)n1N (centres unmarked) [Example 207]
- efficacy [1]: 100%
- logP[a] [2]: 1.47
- logP[b] [3]: 1.45

SMILES: CNn1c(C2CC2)nn(-c2cc([S+]([O-])CC(F)(F)F)c(C)cc2F)c1=O (centres unmarked) [Example 208]
- efficacy [1]: 100%
- logP[a] [2]: 2.09
- logP[b] [3]: 2.05

SMILES: Cc1cc(F)c(-n2nc(C)n(N(C)C)c2=O)cc1[S+]([O-])CC(F)(F)F (centres unmarked) [Example 210]
- efficacy [1]: 100%
- logP[a] [2]: 2.09
- logP[b] [3]: 2.09

SMILES: Cc1ccc(-n2nc(C(F)(F)F)n(N)c2=O)cc1SCC(F)(F)F [Example 212]
- efficacy [1]: 90%
- logP[a] [2]: 3.38
- logP[b] [3]: 3.37

SMILES: CNn1c(N(C)C)nn(-c2cc([S+]([O-])CC(F)(F)F)c(C)cc2F)c1=O (centres unmarked) [Example 217]
- efficacy [1]: 90%
- logP[a] [2]: 2.02
- logP[b] [3]: 1.98

SMILES: Cc1cc(F)c(-n2nc(N(C)C)n(N)c2=O)cc1[S+]([O-])CC(F)(F)F (centres unmarked) [Example 221]
- efficacy [1]: 100%
- logP[a] [2]: 1.63
- logP[b] [3]: 1.60

SMILES: COn1c(C)nn(-c2cc([S+]([O-])CC(F)(F)F)c(C)cc2F)c1=O (centres unmarked) [Example 226]
- efficacy [1]: 100%
- logP[a] [2]: 1.76
- logP[b] [3]: 1.74

SMILES: Cc1cc(F)c(-n2nc([S+]([O-])CC(F)F)n(C3CC3)c2=O)cc1[S+]([O-])CC(F)(F)F (centres unmarked) [Example 229]
- efficacy [1]: 90%
- logP[a] [2]: 2.10
- logP[b] [3]: 2.07

SMILES: Cc1cc(F)c(-n2nc([S+](C)[O-])n(C)c2=O)cc1[S+]([O-])CC(F)(F)F (centres unmarked) [Example 233]
- efficacy [1]: 100%
- logP[a] [2]: 1.47
- logP[b] [3]: 1.44

SMILES: CC[S+]([O-])c1nn(-c2cc(SCC(F)(F)F)c(C)cc2F)c(=O)n1C1CC1 (centres unmarked) [Example 234]
- efficacy [1]: 100%
- logP[a] [2]: 2.68
- logP[b] [3]: 2.65

SMILES: CC[S+]([O-])c1nn(-c2cc([S+]([O-])CC(F)(F)F)c(C)cc2F)c(=O)n1C1CC1 (centres unmarked) [Example 235]
- efficacy [1]: 100%
- logP[a] [2]: 1.85
- logP[b] [3]: 1.80

SMILES: CCC[S+]([O-])c1nn(-c2cc(SCC(F)(F)F)c(C)cc2F)c(=O)n1C1CC1 (centres unmarked) [Example 236]
- efficacy [1]: 90%
- logP[a] [2]: 3.05
- logP[b] [3]: 2.98

SMILES: CCC[S+]([O-])c1nn(-c2cc([S+]([O-])CC(F)(F)F)c(C)cc2F)c(=O)n1C1CC1 (centres unmarked) [Example 237]
- efficacy [1]: 100%
- logP[a] [2]: 2.14
- logP[b] [3]: 2.08

SMILES: Cc1cc(F)c(-n2nc([S+]([O-])C(C)C)n(C3CC3)c2=O)cc1SCC(F)(F)F (centres unmarked) [Example 238]
- efficacy [1]: 100%
- logP[a] [2]: 2.99
- logP[b] [3]: 2.92

SMILES: Cc1cc(F)c(-n2nc([S+]([O-])C(C)C)n(C3CC3)c2=O)cc1[S+]([O-])CC(F)(F)F (centres unmarked) [Example 239]
- efficacy [1]: 100%
- logP[a] [2]: 2.08
- logP[b] [3]: 2.03

Second part, led by results:

- logP[a] [2]: 2.84
- logP[b] [3]: 2.81
SMILES: Cc1cc(F)c(-n2nc(N(C)C)n(C)c2=O)cc1SCC(F)(F)F [Example 190]
- efficacy [1]: 90%

- logP[a] [2]: 2.67
- logP[b] [3]: 2.61
SMILES: Cc1cc(F)c(-n2nc(C3CC3)n(N)c2=O)cc1SCC(F)(F)F [Example 196]
- efficacy [1]: 100%

- logP[a] [2]: 2.28
- logP[b] [3]: 2.22
SMILES: COCc1nn(-c2cc(SCC(F)(F)F)c(C)cc2F)c(=O)n1N [Example 198]
- efficacy [1]: 100%

- logP[a] [2]: 3.15
- logP[b] [3]: 3.07
SMILES: CNn1c(C2CC2)nn(-c2cc(SCC(F)(F)F)c(C)cc2F)c1=O [Example 199]
- efficacy [1]: 100%

- logP[a] [2]: 2.18
- logP[b] [3]: 2.13
SMILES: Cc1cc(F)c(-n2nc(C)n(N)c2=O)cc1SCC(F)(F)F [Example 200]
- efficacy [1]: 100%

- logP[a] [2]: 3.17
- logP[b] [3]: 3.14
SMILES: Cc1cc(F)c(-n2nc(C)n(N(C)C)c2=O)cc1SCC(F)(F)F [Example 201]
- efficacy [1]: 100%

- logP[a] [2]: 2.32
- logP[b] [3]: 2.27
SMILES: CNn1cnn(-c2cc(SCC(F)(F)F)c(C)cc2F)c1=O [Example 203]
- efficacy [1]: 100%

- logP[a] [2]: 3.15
- logP[b] [3]: 3.08
SMILES: Cc1cc(F)c(-n2nc(C(F)(F)F)n(N)c2=O)cc1SCC(F)(F)F [Example 205]
- efficacy [1]: 100%

- logP[a] [2]: 2.02
- logP[b] [3]: 2.01
SMILES: Cc1cc(F)c(-n2ncn(N)c2=O)cc1SCC(F)(F)F [Example 211]
- efficacy [1]: 100%

- logP[a] [2]: 3.03
- logP[b] [3]: 2.99
SMILES: CNn1c(N(C)C)nn(-c2cc(SCC(F)(F)F)c(C)cc2F)c1=O [Example 216]
- efficacy [1]: 100%

- logP[a] [2]: 2.06
- logP[b] [3]: 2.04
SMILES: CNc1nn(-c2cc(SCC(F)(F)F)c(C)cc2F)c(=O)n1N [Example 218]
- efficacy [1]: 90%

- logP[a] [2]: 2.51
- logP[b] [3]: 2.48
SMILES: Cc1cc(F)c(-n2nc(N(C)C)n(N)c2=O)cc1SCC(F)(F)F [Example 220]
- efficacy [1]: 90%

- logP[a] [2]: 3.22
- logP[b] [3]: 3.17
SMILES: CCN(CC)c1nn(-c2cc(SCC(F)(F)F)c(C)cc2F)c(=O)n1N [Example 222]
- efficacy [1]: 90%

- logP[a] [2]: 2.74
- logP[b] [3]: 2.71
SMILES: Cc1cc(F)c(-n2nc(NC(C)C)n(N)c2=O)cc1SCC(F)(F)F [Example 224]
- efficacy [1]: 90%

- logP[a] [2]: 2.45
- logP[b] [3]: 2.40
SMILES: Cc1cc(F)c(-n2nc([S+](C)[O-])n(C3CC3)c2=O)cc1SCC(F)(F)F (centres unmarked) [Example 230]
- efficacy [1]: 100%

- logP[a] [2]: 2.25
- logP[b] [3]: 2.21
SMILES: Cc1cc(F)c(-n2nc([S+](C)[O-])n(C)c2=O)cc1SCC(F)(F)F (centres unmarked) [Example 232]
- efficacy [1]: 90%

Source: patent US9981940B2, “Aryl sulfide derivatives and aryl sulfoxide derivatives as acaricides and insecticides” (BAYER CROPSCIENCE AKTIENGESELLSCHAFT, priority 2013, dated 2018)
